Reference: US20070060629A1, “Large conductance calcium-activated k channel opener” (priority 2003, published 2007)

Key:
anesthetized rats = test: Inhibitory effect on the rhythmic bladder contractions induced by substance P in anesthetized rats; format: in vivo, rat; conditions: time during which frequency of rhythmic bladder contraction was completely inhibited; 0.25 mg/kg of compound, intravenous; substance P-infused anesthetized rats
Experimental: Inhibitory Effect on the Rhythmic Bladder Contractions Induced by Substance P in Anesthetized Rats
For the experiments, Sprague-Dawley female rats (9 to 12 weeks old) weighing between 200 to 300 g were used. After urethane anesthetization (subcutaneously administered with a dose of 1.2 g/kg), cannulae were placed in both right and left femoral veins. One intravenous catheter was used for administration of compounds, and the other was for the substance P (0.33 μg/kg/min) infusion. We also cannulated into ureter to pass urine. Polyethylene catheters were inserted into carotid artery for continuous monitoring of arterial blood pressure and heart rate. For continuous infusion, transurethral bladder catheter was inserted into the bladder through the urethra and tied in place by a ligature around the urethral orifice. One end of the catheter was attached to a pressure transducer in order to measure intravesical pressure. The other end of the catheter was used for infusion of saline into the bladder. After stabilization of blood pressure and heart rate and after the bladder was emptied, cystometry was performed by filling the bladder slowly with about 0.6 ml of saline. After about 10 minutes, intravenous infusion of substance P (0.33 μg/kg/min) was started for stabilization of the micturition reflex. Compounds were administered after stable rhythmic bladder contraction was obtained over 15 minutes. All compounds were dissolved or suspended in saline containing 0.5% Tween 80 for intravenous administration (0.1 ml/kg).
Also, pre-administration of iberiotoxin, a selective large conductance calcium-activated K channel blocker (0.15 mg/kg, intravenous administration) reduced inhibitory effect of the compounds of the present invention on the rhythmic bladder contraction.

[1] = system: isolated rabbit urinary bladder; test: Relaxation effect on potassium-induced contraction of isolated rabbit urinary bladder; format: cell-based; conditions: Oryctolagus cuniculus; isolated rabbit urinary bladder strips pre-contracted with high-K+ (30 mM); relaxation relative to 10^-4 M papaverine as 100%; rank A, B or C; read-out: IC50 value (50% relaxation concentration)
Experimental: Relaxation Effect on Potassium-Induced Contraction of Isolated Rabbit Urinary Bladder
Urinary bladder was isolated from Male NZW rabbits (body weight: 2.0-3.5 kg) and immersed in ice-cold Krebs-bicarbonate solution (in mM: 118 NaCl, 4.7 KCl, 2.55 CaCl2, 1.18 MgSO4, 1.18 KH2PO4, 24.88 NaHCO3 and 11.1 glucose). The urinary bladder was cut into longitudinal strips (5 mm length, 3-4 mm width) after mucosal layer was removed.
Preparations were mounted in organ baths containing 10 ml of Krebs solution maintained at 37° C. and gassed with 95% O2/5% CO2. Accordingly, preparations were stretched with an initial tension of 2.0±1.0 g, and changes in isometric tension were measured by force-displacement transducer. The preparations were pre-contracted by changing organ-bath solution into high-K^+ (30 mM) Krebs solution (in mM: 118 NaCl, […], 2.55 CaCl2, 1.18 MgSO4, 1.18 KH2PO4, 24.88 NaHCO3 and 11.1 glucose).
After stable tension was obtained, compounds were added into organ baths cumulatively (10^−8 M-10^−4 M). The effects of compounds were expressed as a percentage of the maximum relaxation produced by 1O^−4 M papaverine as 100%. 50% relaxation concentration (IC50) was calculated and IC50 value range (μM) of compounds of the present invention was shown in the following Table 68 with a rank of A, B or C. These ranges are as mentioned below. 3 μM≧C>1 μM≧B>0.5 μM≧A

SMILES	IC50 [1] [µM]	100% inhibiting time (anesthetized rats) [min]
Cc1onc(-c2ccccc2)c1-c1ccc(C(=O)N[C@@H](C)CO)cc1 [Example 135, N-[(1S)-2-hydroxy-1-methylethyl]-4-(5-methyl-3-phenylisoxazol-4-yl)benzamide]		17.8
Cc1onc(-c2ccccc2)c1-c1ccc(S(=O)(=O)NO)cc1 [Example 171]		12.8
Cc1ccc(-c2cc(C(F)(F)F)nn2-c2ccccc2)cc1S(=O)(=O)NCCO [Example 46]	1 to 3	
Cc1onc(-c2cccnc2)c1-c1ccc(C(=O)NCCO)cc1 [Example 207]	0.5 to 1	13.9
COC(=O)NCCNS(=O)(=O)c1ccc(-n2nc(C(F)(F)F)cc2-c2ccc(C)cc2)cc1 [Example 59, methyl {2-[({4-[5-(4-methylphenyl)-3-(trifluoromethyl)-1H-pyrazol-1-yl]phenyl}sulfonyl)amino]-ethyl}carbamate]	1 to 3	5.7

Continued, in another order:

IC50 [1] [µM]	SMILES	100% inhibiting time (anesthetized rats) [min]
< 0.5	Cc1onc(-c2ccc(N(C)C)cc2)c1-c1ccc(S(N)(=O)=O)cc1 [Example 115]	
1 to 3	Cc1onc(-c2ccccc2)c1-c1ccc(C(N)=O)c(O)c1 [Example 155, 2-hydroxy-4-(5-methyl-3-phenylisoxazol-4-yl)benzamide]	
1 to 3	Cc1cccc(-n2nc(C(F)(F)F)cc2-c2ccc(C)c(S(N)(=O)=O)c2)c1 [Example 45]	
1 to 3	COCCNS(=O)(=O)c1ccc(-n2nc(C(F)(F)F)cc2-c2ccc(C)cc2)cc1 [Example 30]	
1 to 3	Cc1ccc(-c2cc(C(F)(F)F)nn2-c2ccc(C(=O)NCCO)cc2)cc1 [Example 51]	
0.5 to 1	Cc1onc(-c2ccccc2)c1-c1ccc(OCCO)cc1 [Example 152, 2-[4-(5-methyl-3-phenylisoxazol-4-yl)phenoxy]ethanol]	
